Assay results as given in patent US10618918B2, “Substituted boronic acids as antimicrobials” (priority 2015, dated 2020).

Columns and labels:
KP1004 KPC-2 [1] = assay: Biapenem potentiation (MPC@1), strain KP1004 KPC-2; type: cell-based; settings: minimum BLI concentration inhibiting growth with biapenem 1 μg/mL; tested up to 40 μg/mL
Procedure: (§1) Biapenem was present in the test medium at 1 μg/mL. […] Table 3 summarizes the BLI potency of biapenem potentiation (MPC@1) for two strains overexpressing class A (KPC) and class D (OXA-48) carbapenemases. Biapenem MIC for each strain is also shown.

KP1086 OXA-48 = assay: Biapenem potentiation (MPC@1), strain KP1086 OXA-48; type: cell-based; settings: minimum BLI concentration inhibiting growth with biapenem 1 μg/mL; tested up to 40 μg/mL
Procedure: as §1

AB1053 OXA-72 = assay: Meropenem potentiation (MPC@8), strain AB1053 OXA-72; type: cell-based, Acinetobacter baumannii; settings: minimum BLI concentration inhibiting growth with meropenem 8 μg/mL; tested up to 20 μg/mL
AB1054 OXA-23 = assay: Meropenem potentiation (MPC@8), strain AB1054 OXA-23; type: cell-based, Acinetobacter baumannii; settings: minimum BLI concentration inhibiting growth with meropenem 8 μg/mL; tested up to 20 μg/mL
[2] = molecular target: T1, purified class A, C and D enzymes (β-lactamases) (Acinetobacter baumannii, UniProt Q9L4P2); assay: biochemical; type: biochemical; settings: purified OXA-23; nitrocefin (NCF) as reporter substrate
T1 construct: rows headed: Ki (OXA-23, NCF), uM; other: purified OXA-23; nitrocefin (NCF) as reporter substrate

[3] = molecular target: purified class A, C and D enzymes (β-lactamases) (Enterobacter cloacae, UniProt P05364); assay: biochemical; type: biochemical
[4] = molecular target: purified class A, C and D enzymes (β-lactamases) (Escherichia coli, UniProt Q9L5C7); assay: biochemical; type: biochemical; settings: purified CTX-M-14; nitrocefin (NCF) as reporter substrate
[5] = molecular target: purified class A, C and D enzymes (β-lactamases) (Klebsiella pneumoniae, UniProt Q6XEC0); assay: biochemical; type: biochemical; settings: purified OXA-48; nitrocefin (NCF) as reporter substrate
[6] = molecular target: purified class A, C and D enzymes (β-lactamases) (Klebsiella pneumoniae, UniProt Q9F663); assay: biochemical; type: biochemical; settings: purified KPC-2; nitrocefin (NCF) as reporter substrate
[7] = molecular target: T2, purified class A, C and D enzymes (β-lactamases) (Pseudomonas aeruginosa, UniProt P24735); assay: biochemical; type: biochemical
T2 construct: rows headed: Ki (Pa-AmpC, NCF), uM; other: purified Pa-AmpC; nitrocefin (NCF) as reporter substrate

ECL1002 = assay: Aztreonam potentiation (MPC@4), strain ECL1002; settings: minimum BLI concentration inhibiting growth with aztreonam 4 μg/mL; tested up to 40 μg/mL
ec308 SHV-5 = assay: Aztreonam potentiation (MPC@4), strain ec308 SHV-5; settings: minimum BLI concentration inhibiting growth with aztreonam 4 μg/mL; tested up to 40 μg/mL
ec302 TEM-10 = assay: Aztreonam potentiation (MPC@4), strain ec302 TEM-10; settings: minimum BLI concentration inhibiting growth with aztreonam 4 μg/mL; tested up to 40 μg/mL
KP1004 KPC-2 [8] = assay: Aztreonam potentiation (MPC@4), strain KP1004 KPC-2; settings: minimum BLI concentration inhibiting growth with aztreonam 4 μg/mL; tested up to 40 μg/mL
EC1010 CMY-6 = assay: Aztreonam potentiation (MPC@4), strain EC1010 CMY-6; settings: minimum BLI concentration inhibiting growth with aztreonam 4 μg/mL; tested up to 40 μg/mL
KP1010 SHV-12 = assay: Aztreonam potentiation (MPC@4), strain KP1010 SHV-12; settings: minimum BLI concentration inhibiting growth with aztreonam 4 μg/mL; tested up to 40 μg/mL
KP1009 CTX-M-15 = assay: Aztreonam potentiation (MPC@4), strain KP1009 CTX-M-15; settings: minimum BLI concentration inhibiting growth with aztreonam 4 μg/mL; tested up to 40 μg/mL
KP1005 CTX-M-14 = assay: Tigemonam potentiation (MPC@4), strain KP1005 CTX-M-14; settings: minimum BLI concentration inhibiting growth with tigemonam 4 μg/mL; tested up to 40 μg/mL

T1 sequence (Q9L4P2 whole entry): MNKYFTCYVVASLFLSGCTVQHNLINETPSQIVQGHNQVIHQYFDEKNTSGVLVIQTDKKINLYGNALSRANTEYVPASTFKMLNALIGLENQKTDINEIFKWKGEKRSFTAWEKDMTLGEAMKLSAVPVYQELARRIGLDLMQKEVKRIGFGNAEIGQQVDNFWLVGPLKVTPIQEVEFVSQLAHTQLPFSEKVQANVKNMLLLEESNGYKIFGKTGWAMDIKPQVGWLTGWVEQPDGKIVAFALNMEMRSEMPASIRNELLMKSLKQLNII
Sequence of purified class A, C and D enzymes (β-lactamases) (Enterobacter cloacae, UniProt P05364) (P05364 21-381): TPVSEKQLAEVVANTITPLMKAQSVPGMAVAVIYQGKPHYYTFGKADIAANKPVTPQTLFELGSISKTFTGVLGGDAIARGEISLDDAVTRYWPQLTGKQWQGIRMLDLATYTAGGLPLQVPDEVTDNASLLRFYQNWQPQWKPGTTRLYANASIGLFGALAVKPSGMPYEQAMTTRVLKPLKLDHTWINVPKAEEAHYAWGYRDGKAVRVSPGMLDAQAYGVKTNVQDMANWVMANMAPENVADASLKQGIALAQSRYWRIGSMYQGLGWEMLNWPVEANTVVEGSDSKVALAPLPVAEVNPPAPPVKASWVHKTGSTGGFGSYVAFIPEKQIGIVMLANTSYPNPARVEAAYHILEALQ
T2 sequence (P24735 whole entry): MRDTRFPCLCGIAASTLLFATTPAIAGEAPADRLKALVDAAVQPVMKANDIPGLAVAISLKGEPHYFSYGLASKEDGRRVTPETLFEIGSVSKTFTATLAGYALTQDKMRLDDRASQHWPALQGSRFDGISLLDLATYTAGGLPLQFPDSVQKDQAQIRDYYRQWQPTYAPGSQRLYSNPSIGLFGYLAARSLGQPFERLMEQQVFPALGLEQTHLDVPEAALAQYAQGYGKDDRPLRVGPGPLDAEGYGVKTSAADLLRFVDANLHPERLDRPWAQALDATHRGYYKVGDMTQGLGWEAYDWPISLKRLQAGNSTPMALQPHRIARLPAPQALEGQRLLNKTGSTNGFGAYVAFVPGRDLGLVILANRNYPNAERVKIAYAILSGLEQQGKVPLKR
Sequence of purified class A, C and D enzymes (β-lactamases) (Escherichia coli, UniProt Q9L5C7) (Q9L5C7 entry or part of it): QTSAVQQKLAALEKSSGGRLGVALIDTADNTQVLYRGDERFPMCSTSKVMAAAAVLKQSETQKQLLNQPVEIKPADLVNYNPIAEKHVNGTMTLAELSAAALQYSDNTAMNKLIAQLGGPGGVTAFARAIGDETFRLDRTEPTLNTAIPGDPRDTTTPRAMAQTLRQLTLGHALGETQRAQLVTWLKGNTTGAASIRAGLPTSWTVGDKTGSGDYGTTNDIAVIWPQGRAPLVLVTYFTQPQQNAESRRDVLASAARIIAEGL

SMILES	BPM MPC1 KP1004 KPC-2 (KP1004 KPC-2 [1])	BPM MPC1 OXA-48 KP1086 (KP1086 OXA-48)	MPM MPC8 AB1053 OXA-72 (AB1053 OXA-72)	MPM MPC8 AB1054 OXA-23 (AB1054 OXA-23)	Ki [2] [nM]	Ki (P99, NCF), uM [3]	Ki (CTX-M-14, NCF), uM [4]	Ki (OXA-48, NCF), uM [5]	Ki (KPC-2, NCF), uM [6]	Ki [7] [nM]	AZT MPC4 ECL1002 (ECL1002)	AZT MPC4 SHV-5 ec308 (ec308 SHV-5)	AZT MPC4 TEM-10 ec302 (ec302 TEM-10)	AZT MPC4 KPC-2 KP1004 (KP1004 KPC-2 [8])	AZT MPC4 CMY-6 EC1010 (EC1010 CMY-6)	AZT MPC4 SHV-12 KP1010 (KP1010 SHV-12)	AZT MPC4 CTX-M-15 KP1009 (KP1009 CTX-M-15)	TIG MPC4 CTX-M-14 KP1005 (KP1005 CTX-M-14)
O=C([O-])c1c(OCCN2CCOCC2)ccc2c1O[B-](O)(O)CC2.[Na+].[Na+] [Compound 27, Disodium; 4,4-dihydroxy-8-(2-morpholinoethoxy)-5-oxa-4-boranuidabicyclo[4.4.0]deca-1(6),7,9-triene-7-carboxylate]	X (X = MPC@1 ≤ 5 μg/mL)	Y (Y = 5 μg/mL < MPC@1 ≤ 20 μg/mL)	Y (Y = 5 μg/mL < MPC@1 ≤ 20 μg/mL)	Y (Y = 5 μg/mL < MPC@1 ≤ 20 μg/mL)	< 100	X (key: X = Ki ≤ 0.1 μM; Y = 0.1 μM < Ki ≤ 1 μM; Z = Ki > 1 μM)	X (X = Ki ≤ 0.1 μM)	X (X = Ki ≤ 0.1 μM)	X (X = Ki ≤ 0.1 μM)	100 to 1000	X (X = MPC@4 ≤ 5 μg/mL)	Y (Y = 5 μg/mL < MPC@4 ≤ 20 μg/mL)	Y (Y = 5 μg/mL < MPC@4 ≤ 20 μg/mL)	X (X = MPC@4 ≤ 5 μg/mL)	X (X = MPC@4 ≤ 5 μg/mL)	X (X = MPC@4 ≤ 5 μg/mL)	Y (Y = 5 μg/mL < MPC@4 ≤ 20 μg/mL)	Z (Z = MPC@4 > 20 μg/mL)
O=C([O-])c1c(OCCF)ccc2c1O[B-](O)(O)CC2.[Na+].[Na+] [Compound 43, Disodium; 8-(2-fluoroethoxy)-4,4-dihydroxy-5-oxa-4-boranuidabicyclo[4.4.0]deca-1(6),7,9-triene-7-carboxylate]	X (X = MPC@1 ≤ 5 μg/mL)	X (X = MPC@1 ≤ 5 μg/mL)	X (X = MPC@1 ≤ 5 μg/mL)	X (X = MPC@1 ≤ 5 μg/mL)	< 100	X (key: X = Ki ≤ 0.1 μM; Y = 0.1 μM < Ki ≤ 1 μM; Z = Ki > 1 μM)	X (X = Ki ≤ 0.1 μM)	X (X = Ki ≤ 0.1 μM)	X (X = Ki ≤ 0.1 μM)	< 100	X (X = MPC@4 ≤ 5 μg/mL)	X (X = MPC@4 ≤ 5 μg/mL)	X (X = MPC@4 ≤ 5 μg/mL)	X (X = MPC@4 ≤ 5 μg/mL)	X (X = MPC@4 ≤ 5 μg/mL)	X (X = MPC@4 ≤ 5 μg/mL)	X (X = MPC@4 ≤ 5 μg/mL)	X (X = MPC@4 ≤ 5 μg/mL)
O=C(O)c1c(-c2c[nH]nn2)ccc2c1O[B-](O)(O)CC2 [Compound 16, Disodium; 4,4-dihydroxy-8-(1H-triazol-5-yl)-5-oxa-4-boranuidabicyclo[4.4.0]deca-1(6),7,9-triene-7-carboxylate]	X (X = MPC@1 ≤ 5 μg/mL)	Y (Y = 5 μg/mL < MPC@1 ≤ 20 μg/mL)	X (X = MPC@1 ≤ 5 μg/mL)	Y (Y = 5 μg/mL < MPC@1 ≤ 20 μg/mL)	< 100	X (key: X = Ki ≤ 0.1 μM; Y = 0.1 μM < Ki ≤ 1 μM; Z = Ki > 1 μM)	X (X = Ki ≤ 0.1 μM)	X (X = Ki ≤ 0.1 μM)	X (X = Ki ≤ 0.1 μM)	< 100	X (X = MPC@4 ≤ 5 μg/mL)	Y (Y = 5 μg/mL < MPC@4 ≤ 20 μg/mL)	X (X = MPC@4 ≤ 5 μg/mL)	X (X = MPC@4 ≤ 5 μg/mL)	X (X = MPC@4 ≤ 5 μg/mL)	X (X = MPC@4 ≤ 5 μg/mL)	X (X = MPC@4 ≤ 5 μg/mL)	Y (Y = 5 μg/mL < MPC@4 ≤ 20 μg/mL)
